Source: patent publication US11160887B2, “Compositions for use in diagnosing and treating melanoma, including metastatic melanoma and methods related to same” (UNM RAINFOREST INNOVATIONS, priority 2008, dated 2021)

Tests used:
[1] = test system: B16/F10 pulmonary melanoma metastases; assay type: in vivo, mouse
Method: Metastatic Melanoma Imaging: A pulmonary metastatic melanoma-bearing mouse was used for [^18F]FDG PET imaging 16 days after the cell injection and used for ^111In-DOTA-GlyGlu-CycMSH SPECT/CT imaging on next day (a time interval of 26 h) to compare the difference in detection efficiency between [^18F]FDG and ^111In-DOTA-GlyGlu-CycMSH. The mouse was injected with 35.15 MBq of commercial [^18F]FDG (Biotech, N. Mex.) via the tail vein. At 1 h post-injection, the mouse was anesthetized with 1.5% isoflurane and placed in the prone position near the center of the field of view of small animal PET (LabPET™) (Gamma Medica-Ideas, Sherbrooke, Quebec). A 30-min static scan was acquired, and the image was reconstructed by maximum likelihood estimation method (MLEM). The mouse was returned to the cage for recovery after the ^18F-FDG PET imaging study was completed. The same mouse was injected with 24.05 MBq of ^111In-DOTA-GlyGlu-CycMSH via the tail vein 24 h after the ^18F-FDG PET imaging study. The mouse was anesthetized with 1.5% isoflurane for small animal SPECT/CT (Nano-SPECT/CT®, Bioscan) imaging 2 h post-injection. The 6-min CT imaging was immediately followed by the focused SPECT imaging of lung. The SPECT scans of 24 projections were acquired and total acquisition time was 45 min. After the focused lung imaging, the mouse was sacrificed with CO2 inhalation for whole-body SPECT/CT imaging. The 9-min CT imaging was immediately followed by the SPECT imaging of whole-body. Reconstructed data from SPECT and CT were visualized and co-registered using InVivoScope (Bioscan, Washington D.C.). Necropsy analysis of the mouse was performed to confirm the pulmonary metastatic melanoma lesions after the SPECT/CT imaging studies were completed. To monitor the development of pulmonary melanoma metstases with ^111In-DOTA-GlyGlu-CycMSH, a pulmonary metastatic melanoma-bearing mouse was injected with 10.36 MBq of ^111In-DOTA-GlyGlu-CycMSH through the tail vein for small animal SPECT/CT imaging 20 days after the cell injection. […]

[2] = test system: melanoma metastases smaller than 5 mm; conditions: literature (5); cited from earlier work

Substance: 2-[^18F]fluoro-2-deoxy-D-glucose [[^18F]FDG]
- detection of pulmonary metastatic melanoma lesions by imaging ([1]; SPECT/CT 2 h post-injection (111In peptide) or PET 1 h post-injection ([18F]FDG), same mouse, 16-17 days post the cell injection): failed in identifying the pulmonary melanoma metastases
- accumulation of activity in normal organs in whole-body image ([1]; mouse, in vivo): much higher normal organ accumulation
- melanoma metastases smaller than 5 mm detected by PET imaging [2]: 23%
